Like-named read-outs stand apart in the source and are kept apart here.
How the values were obtained:
[1] = system: lymphocytes from PBF-positive patients with osteosarcoma; experiment: Frequency analysis of antigenic peptide-specific CTLs (LD/MLPC, HLA-A0201/PBF tetramer staining); assay type: cell-based, human
Description: Lymphocytes from five PBF-positive patients with osteosarcoma were subjected to ,mixed lymphocyte peptide culture under conditions of limiting dilution (limiting dilution/mixed lymphocyte peptide culture; LD/MLPC) to induce peptide-specific CTLs (Cancer Sci., 2008, 99:368-375, which is incorporated herein by reference). Regarding two patients: Patient Nos. 1 ,and 2, 50 ml of peripheral blood was collected to isolate peripheral blood mononuclear cells (PBMCs). PBMCs were cultured for 60 minutes at room temperature in AIM-V medium (Invitrogen) containing 1% human serum and supplemented with 50 μg/ml of the peptide shown in SEQ ID NO:4. PBMCs which were pulsed with the peptide were plated at 2×10^5 cells/200 μl/well on a U-bottomed 96-well microtiter plate and cultured in AIM-V medium containing 10% human serum, 20 U/ml IL-2, and 10 ng/ml IL-7. Seven days after the culture was started, half of the cultured medium in each well was replaced with AIM-V medium containing IL-2, IL-7, and the peptide shown in SEQ ID NO:4 in order to perform the second stimulation. Cells on 14 to 21 days after the culture was started were used for frequency analysis with a tetramer.
Regarding three patients: Patient Nos. 3, 4, and 5, CD8-positive cells were isolated from PBMCs using magnetic anti-CD8 microbeads (Miltenyi Biotec). CD8-positive cells were pulsed for 60 minutes with the peptide shown in SEQ ID NO:4 and inactivated by radiation. 1.0×10^5 to 2.1×10^5 CD8-positive cells/well were cultured on a 48-well microtiter plate using AIM-V medium containing 10% human serum, 20 U/ml IL-2, and 10 ng/ml IL-7, together with 2×10^5 to 5×10^5 cells/well of irradiated, peptide-pulsed CD8-positive cells. After 7 days of the culture, the irradiated peptide-pulsed CD8-positive cells were added as described above, in order to perform the second stimulation. Cells on 13 to 23 days after the culture was started were used for frequency analysis with a tetramer. A PE-labeled HLA-A0201/PBF tetramer (MBL) which was prepared using the peptide shown in SEQ ID NO:4 was used for the analysis.
An FITC-labeled HLA-A0201/HIV tetramer (MBL) which was prepared using an HIV-derived peptide was used as negative control. Some of the lymphocytes which were cultured using the LD/MLPC method were cultured at room temperature for 15 minutes with the PE-labeled HLA-A0201/PBF tetramer or with the FITC-labeled HLA-A0201/HIV tetramer (10 nM each, in 25 μl of PBS), followed by staining. Further, a PE-Cy5-labeled anti-CD8 antibody ,eBioscience) was added and incubated for 15 minutes, followed by staining. Then, cells were washed twice with PBS, fixed in 0.5% formalin, and analyzed in a flow cytometer FACScan. Living cells which were stained both with the PE-Cy5-labeled anti-CD8 antibody and with the PE-labeled HLA-A0201/PBF tetramer were considered to be tetramer-positive and peptide-specific CTLs. The frequency of CTLs specific for a peptide shown in SEQ ID ,NO:4 was determined using the following equation: Frequency=the number of tetramer-positive wells/(the total number of the wells examined×the number of CD8-positive cells per well at the start of LD/MLPC). Of the five patients, three patients: Patient Nos. […], had frequencies of 5×10^−6, 2×10^−7, and 5×10^−7, respectively.

HLA-A0201 = HLA-A0201 (Homo sapiens, UniProt P04439, D140Y/D185E/D98H/E176V/E277Q/G131W/G231S/I119V/I121R/I166T/I218V/L300P/L318F/N151K/N90K/P208A/P217A/Q86G/Q94H/R138H/R169H/T345S); experiment: HLA class I stabilization assay, binding affinity to HLA-A0201

Row | Substance | Frequency of CTLs specific for the peptide ([1]; Patient No. 1) | Number of tetramer-positive wells ([1]; Patient No. 1, PBMCs, 18 wells tested, 200,000 initial cells per well, 25% CD8) | Frequency of CTLs specific for the peptide ([1]; Patient No. 2) | Number of tetramer-positive wells ([1]; Patient No. 2, PBMCs, 46 wells tested, 200,000 initial cells per well, 24% CD8) | Frequency of CTLs specific for the peptide ([1]; Patient No. 3) | Number of tetramer-positive wells ([1]; Patient No. 3, CD8-positive cells, 56 wells tested, 210,000 initial cells per well, 99% CD8) | Frequency of CTLs specific for the peptide ([1]; Patient No. 4) | Number of tetramer-positive wells ([1]; Patient No. 4, CD8-positive cells, 36 wells tested, 150,000 initial cells per well, 99% CD8) | Frequency of CTLs specific for the peptide ([1]; Patient No. 5) | Number of tetramer-positive wells ([1]; Patient No. 5, CD8-positive cells, 103 wells tested, 100,000 initial cells per well, 99% CD8) | % MFI increase±standard deviation (SD) (HLA-A0201; triplicate, FITC-labeled anti-HLA-A2 antibody BB7.2, flow cytometry) [%] | % MFI increase±standard deviation (SD) (HLA-A0201) [%]
1 | SEQ ID NO:4: fragment peptide of tumor antigen protein PBF (papillomavirus binding factor) binding to HLA-A2 antigen; synthesized by the Fmoc method (ALPSFQIPV) | <1 × 10^−6 | 0 | 5×10^−6 | 10 | 2×10^−7 | 2 | 5×10^−7 | 3 | <1 × 10^−7 | 0 | 74.5±6.6 | –
2 | RGYVYQGL [SEQ ID NO:6, reference compound] | – | – | – | – | – | – | – | – | – | – | – | 5.6±8.2
